From paper PMC5218480 (PLoS ONE, 2017)

Test system: MV-4-11 cells
Experiment: Gene expression microarray analysis (Affymetrix PrimeView) and GSEA
Format: cell-based, human
Parameters: RFU PODN (11730768_x_at) / Fold change /veh PODN (11730768_x_at) / RFU LINC00158 (11744669_a_at) / Fold change /veh LINC00158 (11744669_a_at) / RFU DUSP10 (11751237_a_at) / Fold change /veh DUSP10 (11751237_a_at) / RFU ID3 (11757404_x_at) / Fold change /veh ID3 (11757404_x_at) / RFU PLEKHG5 (11737974_s_at) / Fold change /veh PLEKHG5 (11737974_s_at) / RFU LRRC4B (11730491_at) / Fold change /veh LRRC4B (11730491_at) / RFU GIMAP4 (11747438_a_at) / Fold change /veh GIMAP4 (11747438_a_at) / RFU KRT8 (11758183_x_at) / Fold change /veh KRT8 (11758183_x_at) / RFU CNN1 (11734310_a_at) / Fold change /veh CNN1 (11734310_a_at) / RFU VPS37D (11726825_at) / Fold change /veh VPS37D (11726825_at) / RFU C10orf10 (11716522_x_at) / Fold change /veh C10orf10 (11716522_x_at) / RFU KIR2DL2 /// KIR2DL4 /// KIR2DL5A /// KIR2DL5B /// KIR2DS1 /// KIR2DS2 /// KIR2DS3 /// KIR2DS4 /// KIR3DL3 /// KIR3DL3 /// KIR3DS1 (11738374_at) / Fold change /veh KIR2DL2 /// KIR2DL4 /// KIR2DL5A /// KIR2DL5B /// KIR2DS1 /// KIR2DS2 /// KIR2DS3 /// KIR2DS4 /// KIR3DL3 /// KIR3DL3 /// KIR3DS1 (11738374_at) / RFU C1QL1 (11718748_at) / Fold change /veh C1QL1 (11718748_at) / RFU TMPRSS4 (11747572_a_at) / Fold change /veh TMPRSS4 (11747572_a_at) / RFU HAMP (11756126_x_at) / Fold change /veh HAMP (11756126_x_at) / RFU RNFT2 (11725882_a_at) / Fold change /veh RNFT2 (11725882_a_at) / RFU NR4A2 (11747474_a_at) / Fold change /veh NR4A2 (11747474_a_at) / RFU ABCC12 (11746883_a_at) / Fold change /veh ABCC12 (11746883_a_at) / RFU TMEM136 (11760407_x_at) / Fold change /veh TMEM136 (11760407_x_at) / RFU CLDN22 /// WWC2 (11732394_at) / Fold change /veh CLDN22 /// WWC2 (11732394_at) / RFU HLA-DPB1 (11760878_x_at) / Fold change /veh HLA-DPB1 (11760878_x_at) / RFU SPINT1 (11716480_a_at) / Fold change /veh SPINT1 (11716480_a_at) / RFU GAP43 (11754022_s_at) / Fold change /veh GAP43 (11754022_s_at) / RFU A4GNT (11735810_at) / Fold change /veh A4GNT (11735810_at) / RFU PRB3 (11715151_x_at) / Fold change /veh PRB3 (11715151_x_at) / RFU TUBB4B (11761932_at) / Fold change /veh TUBB4B (11761932_at) / RFU CAPN14 (11732068_a_at) / Fold change /veh CAPN14 (11732068_a_at) / RFU TMCC2 (11721928_a_at) / Fold change /veh TMCC2 (11721928_a_at) / RFU IRGQ (11745062_a_at) / Fold change /veh IRGQ (11745062_a_at) / RFU FAM174B (11720279_a_at) / Fold change /veh FAM174B (11720279_a_at) / RFU TMPRSS4 (11748680_a_at) / Fold change /veh TMPRSS4 (11748680_a_at) / RFU FAM212B (11763350_a_at) / Fold change /veh FAM212B (11763350_a_at) / RFU PLEKHG5 (11743358_a_at) / Fold change /veh PLEKHG5 (11743358_a_at) / RFU ZSCAN30 (11745921_a_at) / Fold change /veh ZSCAN30 (11745921_a_at) / RFU CMKLR1 (11741424_a_at) / Fold change /veh CMKLR1 (11741424_a_at) / RFU LOC101060620 /// MAPK8IP1 (11723275_at) / Fold change /veh LOC101060620 /// MAPK8IP1 (11723275_at) / RFU SPTSSB (11747773_x_at) / Fold change /veh SPTSSB (11747773_x_at) / RFU PRSS12 (11739890_at) / Fold change /veh PRSS12 (11739890_at) / RFU BIN1 (11741810_x_at) / Fold change /veh BIN1 (11741810_x_at) / RFU WNT11 (11732464_a_at) / Fold change /veh WNT11 (11732464_a_at) / RFU C10orf10 (11716521_a_at) / Fold change /veh C10orf10 (11716521_a_at) / RFU C5orf56 (11738089_at) / Fold change /veh C5orf56 (11738089_at) / RFU CYB561 (11721691_x_at) / Fold change /veh CYB561 (11721691_x_at) / RFU ANKRD19P (11752326_a_at) / Fold change /veh ANKRD19P (11752326_a_at) / RFU OR2T12 /// OR2T33 /// OR2T8 (11738714_s_at) / Fold change /veh OR2T12 /// OR2T33 /// OR2T8 (11738714_s_at) / RFU VCAN (11748164_a_at) / Fold change /veh VCAN (11748164_a_at) / RFU JSRP1 (11732532_at) / Fold change /veh JSRP1 (11732532_at) / RFU KRTAP10-11 (11738290_x_at) / Fold change /veh KRTAP10-11 (11738290_x_at) / RFU MYO3A (11730013_a_at) / Fold change /veh MYO3A (11730013_a_at) / RFU EBF3 (11725865_a_at) / Fold change /veh EBF3 (11725865_a_at) / RFU CAMK2N1 (11719241_x_at) / Fold change /veh CAMK2N1 (11719241_x_at) / RFU C5orf56 (11738088_a_at) / Fold change /veh C5orf56 (11738088_a_at) / RFU OLFML3 (11715873_a_at) / Fold change /veh OLFML3 (11715873_a_at) / RFU LOC100653217 /// NTM (11731650_a_at) / Fold change /veh LOC100653217 /// NTM (11731650_a_at) / RFU MAPK11 (11762145_a_at) / Fold change /veh MAPK11 (11762145_a_at) / RFU FIZ1 (11724087_x_at) / Fold change /veh FIZ1 (11724087_x_at) / RFU OASL (11726364_x_at) / Fold change /veh OASL (11726364_x_at) / RFU SOX15 (11748057_x_at) / Fold change /veh SOX15 (11748057_x_at) / RFU CD79A (11719716_a_at) / Fold change /veh CD79A (11719716_a_at) / RFU HIST1H1D (11736915_at) / Fold change /veh HIST1H1D (11736915_at) / RFU CASKIN2 (11723855_a_at) / Fold change /veh CASKIN2 (11723855_a_at) / RFU LOC730098 (11760151_x_at) / Fold change /veh LOC730098 (11760151_x_at) / RFU OR4N2 (11742367_at) / Fold change /veh OR4N2 (11742367_at) / RFU PRRT2 (11749266_a_at) / Fold change /veh PRRT2 (11749266_a_at) / RFU SNX32 (11753110_a_at) / Fold change /veh SNX32 (11753110_a_at) / RFU CDHR5 (11726645_a_at) / Fold change /veh CDHR5 (11726645_a_at) / RFU RCAN1 (11760418_a_at) / Fold change /veh RCAN1 (11760418_a_at) / RFU FAM167A (11723789_a_at) / Fold change /veh FAM167A (11723789_a_at) / RFU FAM26E (11764081_at) / Fold change /veh FAM26E (11764081_at) / RFU ISYNA1 (11749810_s_at) / Fold change /veh ISYNA1 (11749810_s_at) / RFU ACY1 (11761880_at) / Fold change /veh ACY1 (11761880_at) / RFU 11764098_at / Fold change /veh 11764098_at / RFU SAMD14 (11745864_x_at) / Fold change /veh SAMD14 (11745864_x_at) / RFU NPB (11741838_a_at) / Fold change /veh NPB (11741838_a_at) / RFU TMPRSS6 (11731388_a_at) / Fold change /veh TMPRSS6 (11731388_a_at) / RFU KRTAP10-2 (11738614_at) / Fold change /veh KRTAP10-2 (11738614_at) / RFU ARHGAP8 /// PRR5-ARHGAP8 (11727945_x_at) / Fold change /veh ARHGAP8 /// PRR5-ARHGAP8 (11727945_x_at) / RFU KRTAP5-7 /// NADSYN1 (11734609_at) / Fold change /veh KRTAP5-7 /// NADSYN1 (11734609_at) / RFU RASL12 (11751679_a_at) / Fold change /veh RASL12 (11751679_a_at) / RFU CDKN2B (11736163_a_at) / Fold change /veh CDKN2B (11736163_a_at) / RFU PRF1 (11729649_at) / Fold change /veh PRF1 (11729649_at) / RFU, ZNF638 /// ZNF638-IT1 / Fold change vs veh, ZNF638 /// ZNF638-IT1 / RFU, PANK3 / Fold change vs veh, PANK3 / RFU, SH3YL1 / Fold change vs veh, SH3YL1 / RFU, ZEB2 / Fold change vs veh, ZEB2 / RFU, NRIP1 / Fold change vs veh, NRIP1 / RFU, PTTG1IP / Fold change vs veh, PTTG1IP / RFU, CAPN2 / Fold change vs veh, CAPN2 / RFU, MED14 / Fold change vs veh, MED14 / RFU, SNORA58 / Fold change vs veh, SNORA58 / RFU, C1orf63 / Fold change vs veh, C1orf63 / RFU, LRRFIP1 / Fold change vs veh, LRRFIP1 / RFU, NDUFAF7 / Fold change vs veh, NDUFAF7 / RFU, SLC12A2 / Fold change vs veh, SLC12A2 / RFU, IBTK / Fold change vs veh, IBTK / RFU, ESF1 / Fold change vs veh, ESF1 / Fold change vs veh, TMEM50B / RFU, TAOK1 / Fold change vs veh, TAOK1 / RFU, ACBD3 / Fold change vs veh, ACBD3 / RFU, TMA16 / Fold change vs veh, TMA16 / RFU, RWDD3 / Fold change vs veh, RWDD3 / RFU, BCAT1 / Fold change vs veh, BCAT1 / RFU, EDEM3 / Fold change vs veh, EDEM3 / RFU, TMEM33 / Fold change vs veh, TMEM33 / RFU, WDR75 / Fold change vs veh, WDR75 / RFU, AHCTF1 / Fold change vs veh, AHCTF1 / RFU, TFRC / Fold change vs veh, TFRC / RFU, ZDHHC17 / Fold change vs veh, ZDHHC17 / RFU, NOM1 / Fold change vs veh, NOM1 / RFU, ARL8B / Fold change vs veh, ARL8B / RFU, ZBTB11 / Fold change vs veh, ZBTB11 / RFU, TAMM41 / Fold change vs veh, TAMM41 / RFU, KIAA1704 /// LOC100996395 / Fold change vs veh, KIAA1704 /// LOC100996395 / RFU, ING1 / Fold change vs veh, ING1 / RFU, TRMT61B / Fold change vs veh, TRMT61B / RFU, FUBP3 / Fold change vs veh, FUBP3 / RFU, TP53 / Fold change vs veh, TP53 / RFU, TNKS2 / Fold change vs veh, TNKS2 / RFU, ZFP14 / Fold change vs veh, ZFP14 / RFU, ACTR2 / Fold change vs veh, ACTR2 / RFU, PPP3R1 / Fold change vs veh, PPP3R1 / RFU, PIK3R1 / Fold change vs veh, PIK3R1 / RFU, HNRNPA1 / Fold change vs veh, HNRNPA1 / RFU, RNF170 / Fold change vs veh, RNF170 / RFU, ZNF28 / Fold change vs veh, ZNF28 / RFU, RNGTT / Fold change vs veh, RNGTT / RFU, OGT / Fold change vs veh, OGT / RFU, BRD1 / Fold change vs veh, BRD1 / RFU, MARS / Fold change vs veh, MARS / RFU, ZNF655 / Fold change vs veh, ZNF655 / RFU, FAHD1 / Fold change vs veh, FAHD1 / RFU, BDP1 / Fold change vs veh, BDP1 / RFU, LRRCC1 / Fold change vs veh, LRRCC1 / RFU, ARID1A / Fold change vs veh, ARID1A / RFU, ZNF146 / Fold change vs veh, ZNF146 / RFU, ZNF330 / Fold change vs veh, ZNF330 / RFU, GPN3 / Fold change vs veh, GPN3 / RFU, C9orf123 / Fold change vs veh, C9orf123 / RFU, N4BP2L2 / Fold change vs veh, N4BP2L2 / RFU, ARFIP1 / Fold change vs veh, ARFIP1 / RFU, FAM179B / Fold change vs veh, FAM179B / RFU, BCL10 / Fold change vs veh, BCL10 / RFU, UHRF1BP1L / Fold change vs veh, UHRF1BP1L / RFU, BET1 / Fold change vs veh, BET1 / RFU, CNOT2 / Fold change vs veh, CNOT2 / RFU, ZNF268 / Fold change vs veh, ZNF268 / Fold change vs veh, ZNF507 / RFU, DGCR2 / Fold change vs veh, DGCR2 / RFU, WDSUB1 / Fold change vs veh, WDSUB1 / Fold change vs veh, HSP90B1 /// MIR3652 / RFU, ADSS / Fold change vs veh, ADSS / RFU, GK / Fold change vs veh, GK / RFU, ZNF148 / Fold change vs veh, ZNF148 / RFU, TAF9 / Fold change vs veh, TAF9 / RFU, SLC1A5 / Fold change vs veh, SLC1A5 / RFU, SLMO2 / Fold change vs veh, SLMO2 / RFU, ABCC4 / Fold change vs veh, ABCC4 / RFU, LOC101060439 /// RAP1B / Fold change vs veh, LOC101060439 /// RAP1B / RFU, RFX7 / Fold change vs veh, RFX7 / RFU, GTPBP10 / Fold change vs veh, GTPBP10 / RFU, CNEP1R1 / Fold change vs veh, CNEP1R1 / RFU, BIVM-ERCC5 /// ERCC5 / Fold change vs veh, BIVM-ERCC5 /// ERCC5 / RFU, ILF3 / Fold change vs veh, ILF3 / RFU 11762660_at / Fold change /veh 11762660_at / RFU VCAN (11757783_s_at) / Fold change /veh VCAN (11757783_s_at) / RFU DDX43 (11728927_at) / Fold change /veh DDX43 (11728927_at) / RFU KRT8 (11758188_x_at) / Fold change /veh KRT8 (11758188_x_at) / RFU NKD1 (11759106_at) / Fold change /veh NKD1 (11759106_at) / RFU SRD5A1 (11742802_a_at) / Fold change /veh SRD5A1 (11742802_a_at) / RFU TPSAB1 /// TPSB2 (11721975_s_at) / Fold change /veh TPSAB1 /// TPSB2 (11721975_s_at) / RFU GSTM3 (11746129_a_at) / Fold change /veh GSTM3 (11746129_a_at) / RFU IL23R (11737362_x_at) / Fold change /veh IL23R (11737362_x_at) / RFU TMEM51 (11727254_a_at) / Fold change /veh TMEM51 (11727254_a_at) / RFU PIWIL2 (11732686_x_at) / Fold change /veh PIWIL2 (11732686_x_at) / RFU ORM1 (11744905_x_at) / Fold change /veh ORM1 (11744905_x_at) / RFU CCDC152 (11743942_at) / Fold change /veh CCDC152 (11743942_at) / RFU ECM1 (11717891_a_at) / Fold change /veh ECM1 (11717891_a_at) / RFU IL23R (11748794_a_at) / Fold change /veh IL23R (11748794_a_at) / RFU TNFAIP8L3 (11732012_x_at) / Fold change /veh TNFAIP8L3 (11732012_x_at) / RFU MBOAT4 (11741988_at) / Fold change /veh MBOAT4 (11741988_at) / RFU 11764193_at / Fold change /veh 11764193_at / RFU TMEM53 (11763286_at) / Fold change /veh TMEM53 (11763286_at) / RFU MAGEB2 (11727129_at) / Fold change /veh MAGEB2 (11727129_at) / RFU TMEM200A (11744735_a_at) / Fold change /veh TMEM200A (11744735_a_at) / RFU CCDC152 (11751479_a_at) / Fold change /veh CCDC152 (11751479_a_at) / RFU FAM211A (11726209_a_at) / Fold change /veh FAM211A (11726209_a_at) / RFU RGS16 (11746705_a_at) / Fold change /veh RGS16 (11746705_a_at) / RFU VCAN (11755009_s_at) / Fold change /veh VCAN (11755009_s_at) / RFU RHOB (11743442_s_at) / Fold change /veh RHOB (11743442_s_at) / RFU RGS16 (11720943_a_at) / Fold change /veh RGS16 (11720943_a_at) / RFU RGS16 (11720944_at) / Fold change /veh RGS16 (11720944_at) / RFU, VPS4B / Fold change vs veh, VPS4B / RFU, CREB1 / Fold change vs veh, CREB1 / RFU, DNAJC13 / Fold change vs veh, DNAJC13 / RFU, GNAQ / Fold change vs veh, GNAQ / RFU, CDK5R1 / Fold change vs veh, CDK5R1 / RFU, ZRANB3 / Fold change vs veh, ZRANB3 / RFU, CUL4A / Fold change vs veh, CUL4A / RFU, CCNY / Fold change vs veh, CCNY / RFU, UFL1 / Fold change vs veh, UFL1 / RFU, COG3 / Fold change vs veh, COG3 / RFU, DIAPH2 / Fold change vs veh, DIAPH2 / RFU, SKA2 / Fold change vs veh, SKA2 / RFU, AFF3 / Fold change vs veh, AFF3 / RFU, LMF1 / Fold change vs veh, LMF1 / RFU, IPO11 / Fold change vs veh, IPO11 / RFU, DFFB / Fold change vs veh, DFFB / RFU, FOXP1 / Fold change vs veh, FOXP1 / RFU, CARD8 / Fold change vs veh, CARD8 / RFU, STRN3 / Fold change vs veh, STRN3 / RFU, ADK / Fold change vs veh, ADK / RFU, RASSF2 / Fold change vs veh, RASSF2 / RFU, WIPF1 / Fold change vs veh, WIPF1 / RFU, LARP1B / Fold change vs veh, LARP1B / RFU, RASA1 / Fold change vs veh, RASA1 / RFU, RB1 / Fold change vs veh, RB1 / RFU, PPFIA1 / Fold change vs veh, PPFIA1 / RFU, MAT2A / Fold change vs veh, MAT2A / RFU, CCT5 / Fold change vs veh, CCT5 / RFU, WDR92 / Fold change vs veh, WDR92 / RFU, CUX1 / Fold change vs veh, CUX1 / RFU, TTC7A / Fold change vs veh, TTC7A / RFU, TMEM135 / Fold change vs veh, TMEM135 / RFU, DEPTOR / Fold change vs veh, DEPTOR / RFU, CPM / Fold change vs veh, CPM / RFU, DNAJB6 / Fold change vs veh, DNAJB6 / RFU, CACNA2D3 / Fold change vs veh, CACNA2D3 / RFU, DTX4 / Fold change vs veh, DTX4 / RFU, TFCP2 / Fold change vs veh, TFCP2 / RFU, GMCL1 /// GMCL1P1 / Fold change vs veh, GMCL1 /// GMCL1P1 / RFU, AEBP2 / Fold change vs veh, AEBP2 / RFU, SNHG1 /// SNORD22 /// SNORD25 /// SNORD26 /// SNORD27 /// SNORD28 /// SNORD29 /// SNORD31 / Fold change vs veh, SNHG1 /// SNORD22 /// SNORD25 /// SNORD26 /// SNORD27 /// SNORD28 /// SNORD29 /// SNORD31 / Fold change (Aza/veh), C12orf56 (ProbeSet 11735607_a_at) / Fold change (ACY-1035/veh), C12orf56 (ProbeSet 11735607_a_at) / Fold change (Aza/veh), FGFR1OP (ProbeSet 11751329_s_at) / Fold change (ACY-1035/veh), FGFR1OP (ProbeSet 11751329_s_at) / Fold change (Aza/veh), VPS36 (ProbeSet 11739960_a_at) / Fold change (ACY-1035/veh), VPS36 (ProbeSet 11739960_a_at) / RFU SYPL1 (11715823_x_at) / Fold change /veh SYPL1 (11715823_x_at) / RFU IGFBP7 (11715501_s_at) / Fold change /veh IGFBP7 (11715501_s_at) / RFU REEP3 (11722064_at) / Fold change /veh REEP3 (11722064_at) / RFU IGLL1 (11728026_x_at) / Fold change /veh IGLL1 (11728026_x_at): dose or concentration left out as unconfirmed
Details: MV-4-11 cells, 48 hours

## Nc1ccc(-c2cccs2)cc1NC(=O)c1ccc2c(c1)cc(C1CC1)n2CCN1CCOCC1 [ACY-1035]
  RFU FAM26E (11764081_at): 5.59 RFU
